According to patent US12378193B2, “Anti-arrhythmicity agents” (The Regents of the University of California, priority 2014, dated 2025):
Entries after “also recorded” stand apart in the source; their conditions may differ.

Key:
[1] = test system: zebrafish tremblor (tre) embryos; assay: Restoration of coordinated cardiac contractions in tre embryos; format: in vivo
Description: (§1) VDAC2 mRNA and morpholino antisense oligos (5′-[…]-3′) (Genetools) (SEQ ID NO: 9) were injected into one-cell stage embryos collected from crosses of tre^tc318 heterozygotes. Cardiac performance was analyzed by visual inspection on 1 dpf. The tre mutant embryos were identified either by observing the fibrillation phenotype at 2-3 dpf or by genotyping as previously described (Langenbacher et al., 2005).
(§2) Chemicals from a synthetic library (Castellano et al., 2007, J Am Chem Soc 129, 5843-5845; Choi et al., 2011, Development 138, 1173-1181; Cruz et al., 2011, Proc Natl Acad Sci USA 108, 6769-6774) and from Biomol International LP were screened for their ability to partially or completely restore persistent heartbeat in tre embryos. 12 embryos collected from crosses of tre^tc318 heterozygotes were raised in the presence of individual compounds at a concentration of 10 μM from 4 hpf (Choi et al., 2011). Cardiac function was analyzed by visual inspection at 1 and 2 dpf. The hearts of tre^tc318 embryos manifest a chaotic movement resembling cardiac fibrillation with intermittent contractions in rare occasion (Ebert et al., 2005; Langenbacher et al., 2005). Compounds that elicit persistent coordinated cardiac contractions were validated on large number of tre mutant embryos and NCX1h morphants (>500 embryos).

HeLa cells = assay: Mitochondria Ca2+ uptake assay in HeLa cells; format: cell-based; conditions: permeabilized cells, 1 μM efsevin, Rhod2
Description: HeLa cells were transfected with zebrafish VDAC2 using Lipofectamine™ 2000 (Invitrogen). 36 hrs after transfection, cells were loaded with 5 μM Rhod2-AM (Invitrogen), a Ca^2+ indicator preferentially localized in mitochondria, for 1 hour at 15° C. followed by a 30 min de-esterification period at 37° C. Subsequently, cells were permeabilized with 100 μM digitonin for 1 min at room temperature. Fluorescence changes in Rhod2 (ex: 544 nm, em: 590 nm) immediately after the addition of Ca^2+ (final free Ca^2+ concentration is calculated to be approximately 10 μM using WEBMAXC at http://web.stanford.edu/˜cpatton/webmaxcS.htm) were monitored in internal buffer (5 mM K-EGTA, 20 mM HEPES, 100 mM K-aspartate, 40 mM KCl, 1 mM MgCl2, 2 mM maleic acid, 2 mM glutamic acid, 5 mM pyruvic acid, 0.5 mM KH2PO4, 5 mM MgATP, pH adjusted to 7.2 with Trizma base) using a FLUOSTAR plate reader (BMG Labtech).

[2] = test system: zebrafish tremblor (tre) embryos; assay: Cardiac performance (line-scan fractional shortening, heart rate) of tremblor embryos; format: in vivo
Description: (§3) Movies of GFP-labelled myl7:GFP hearts were taken at 30 frames per second. Line-scan analysis was performed along a line through the atria or the ventricles of these hearts (Nguyen et al., 2009, Drug Discovery Today: Disease Models 5). Fraction of shortening was deduced from the ratio of diastolic and systolic width and heart rate was determined by beats per minute. Cardiac parameters were analyzed in tremblor^tc318 and VDAC2^LA2256 at 2 dpf.

[3] = test system: murine ventricular cardiomyocytes; assay: Ca2+ imaging (transients, sparks, waves) in isolated cardiomyocytes; format: cell-based
Description: Murine ventricular cardiomyocytes were isolated as previously described (Reuter et al., 2004, J Physiol 554, 779-789). Cells were loaded with 5 μM fluo-4 AM in external solution containing: 138.2 mM NaCl, 4.6 mM KCl, 1.2 mM MgCl, 15 mM glucose, 20 mM HEPES for 1 hr and imaged in external solution supplemented with 2, 5 or 10 mM CaCl2). For the recording of Ca^2+ sparks and transients, the external solution contained 2 mM CaCl2. For Ca^2+ transients, cells were field stimulated at 0.5 Hz with a 5 ms pulse at a voltage of 20% above contraction threshold. For all measurements, efsevin was added 2 hours prior to the actual experiment. Images were recorded on a Zeiss LSM 5 Pascal confocal microscope. Data analysis was carried out using the Zeiss LSM Image Browser and ImageJ with the SparkMaster plugin (Picht et al., 2007, Am J Physiol Cell Physiol 293, C1073-1081). Cells were visually inspected prior to and after each recording. Only those recordings from healthy looking cells with distinct borders, uniform striations and no membrane blebs or granularity were included in the analysis.

[4] = test system: wild type zebrafish embryos; assay: Cardiac performance (line-scan fractional shortening, heart rate) of wild type embryos; format: in vivo
Description: as §3

[5] = test system: mouse embryonic stem cell-derived cardiomyocytes (mESC-CMs); assay: Ca2+ overload-induced irregular Ca2+ transients and contractions in mESC-CMs; format: cell-based; conditions: 10 mM Ca2+ext + 10 μM efsevin
Description: The mouse E14Tg2a ESC and human H9 ESC line were cultured and differentiated as previously described (Blin et al., 2010, J Clin Invest 120, 1125-1139; Arshi et al., 2013, Sci Technol Adv Mater 2013, 025003). At day 10 of differentiation, beating mouse EBs were exposed to external solution containing 10 mM CaCl2 for 10 minutes before DMSO or efsevin (10 μM) treatment. Human EBs were differentiated for 15 days and treated with 5 mM CaCl2) for 10 minutes before DMSO or efsevin (5 μM) treatment. Images of beating EBs were acquired at a rate of 30 frames/sec and analyzed by motion-detection software. For calcium recording, the EBs were loaded with 10 μM fluo-4 AM in culture media for 30 minutes at 37° C. Line-scan analysis was performed and fluorescent signals were acquired by a Zeiss LSM510 confocal microscope.

NCX1hMO injected embryos = assay: Restoration of coordinated cardiac contractions in NCX1h morpholino embryos; format: in vivo, zebrafish; conditions: for embryos with coordinated contractions: VDAC2^zfn/zfn
Description: as §1, §2

[6] = paced at 0.5 Hz, % of vehicle-treated
[7] = efsevin treatment, NCX1MO embryos

## CCOC(=O)C1=CCN(S(=O)(=O)c2ccc(C)cc2)C1c1ccccc1 (stereo not shown) [efsevin]
[1]; efsevin treated tre embryos
  embryos with coordinated cardiac contractions: 71.2±8.8%
[1]; efsevin treated tre embryos, VDAC1/2 knocked down simultaneously
  embryos with coordinated contractions: 30.3±6.3%
[1]; efsevin treated tre embryos, morpholino knockdown of VDAC1 (MO^VDAC1)
  embryos with coordinated contractions: 46.9±10.7%
[1]; efsevin treated tre embryos, morpholino knockdown of VDAC2 (MO^VDAC2)
  embryos with coordinated contractions: 45.3±7.4%
[1]; tremblor embryos
  restoration of rhythmic contractions in tremblor embryos: restored rhythmic contractions in the majority of tremblor embryos
HeLa cells
  mitochondrial Ca2+ uptake after addition of Ca2+: increased mitochondrial Ca^2+ uptake
[2]; efsevin-treated tre embryos
  heart rate: 46±2 beats per minute (bpm)
[2]; efsevin-treated tre embryos, 2 dpf, % of wild-type heart rate
  heart rate restored, relative to wild-type/controls: approximately 40%
[2]; tre + efsevin, 48 hpf
  Atrial FS: 33±2%
  Ventricular FS: 35±3%
[3]; 1 μM efsevin
  spontaneous Ca2+ waves spanning more than half of the entire cell: approximately half
[3]; 10 μM efsevin
  spontaneous Ca2+ waves spanning more than half of the entire cell: further reduced
[3]; 25 μM efsevin
  spontaneous Ca2+ waves spanning more than half of the entire cell: almost entirely blocked
[3]; % of vehicle-treated
  decay phase of the single spark: 82.5±2.1%
  maximum spark amplitude: 101.6±2.5%
  total duration of the spark: 85.7±2%
  total width of the spark: 89.5±1.4%
[3]; efsevin compared to vehicle-treated
  Ca2+ spark frequency: 101.1±7.7%
[3]; [6]
  Ca2+ transient rate of decay: 82.8±4%
  Ca2+ transient time to peak: 95±3.9%
[3]; paced at 0.5 Hz, efsevin-treated as % of vehicle-treated
  Ca2+ transient amplitude: 98.6±4.5%
[3]; sparks, % of vehicle-treated
  Ca2+ release flux: 98.7±2.8%
[4]; efsevin-treated wild-type embryo, 2 dpf
  cardiac performance of wild-type embryos: did not affect cardiac performance
[4]; efsevin-treated wild-type embryos
  heart rate: 123±3 bpm
[4]; wild type + efsevin, 48 hpf
  Atrial FS: 35±2%
  Ventricular FS: 39±1%
[5]
  rhythmic Ca2+ transients and contractions under Ca2+ overload: restored rhythmic Ca2+ transients and cardiac contractions; also recorded: restores regular Ca^2+ transients
NCX1hMO injected embryos; [7]
  embryos with coordinated cardiac contractions: 76.2±8.7%
  embryos with coordinated contractions: 54.1±3.6%
NCX1hMO injected embryos; efsevin treatment, VDAC1MO, NCX1MO embryos
  embryos with coordinated contractions: 35.7±7.1%
NCX1hMO injected embryos; linker-attached compounds
  restoration of rhythmic contractions in NCX1hMO injected embryos: retained their ability to restore rhythmic contractions
